In ChEMBL document CHEMBL5512666, “Selenization of Small Molecule Drugs: A New Player on the Board” (J Med Chem, 2024):
Values after ≈ are worked out from the molar mass of the structure shown.

Tests used:
OVCAR-3 = assay: Antiproliferative activity against human OVCAR-3 cells; format: functional, cell-based
[1] = Antiproliferative activity against human OVCAR-10 cells; format: functional, cell-based
ES-2 = assay: Antiproliferative activity against human ES2 cells; format: functional, cell-based
[2] = Antiproliferative activity against human HEY A8 cells; format: functional, cell-based
HEK-293T = assay: Antiproliferative activity against HEK293T; format: functional, cell-based; settings: Homo sapiens
Human alphaherpesvirus 1 = assay: Antiviral activity against HSV-1 infected in African green monkey Vero cells assessed as reduction in virus-induced cytopathic effect incubated for 3 days by MTT assay; format: functional, organism-based; settings: Human alphaherpesvirus 1, Vero, 72 h
Human alphaherpesvirus 2 = assay: Antiviral activity against HSV-2 infected in African green monkey Vero cells assessed as reduction in virus-induced cytopathic effect incubated for 3 days by MTT assay; format: functional, organism-based; settings: Human alphaherpesvirus 2, Vero, 72 h
Human alphaherpesvirus 3 = assay: Antiviral activity against VZV infected in African green monkey Vero cells assessed as reduction in virus-induced cytopathic effect incubated for 3 days by MTT assay; format: functional, organism-based; settings: Human alphaherpesvirus 3, Vero, 72 h
Human betaherpesvirus 5 = assay: Antiviral activity against […] infected in African green monkey Vero cells assessed as reduction in virus-induced cytopathic effect incubated for 3 days by MTT assay; format: functional, organism-based; settings: Human betaherpesvirus 5, Vero, 72 h
[3] = Antioxidant activity assessed as reduction in peroxynitrite mediated L-tyrosine nitration by measuring remaining activity relative to control; format: functional; set-up: concentration or dose not given beside the values
HeLa [4] = assay: Cytotoxicity against human HeLa cells measured after 72 hrs; format: functional, cell-based
A549 [5] = assay: Cytotoxicity against human A549 cells measured after 72 hrs; format: functional, cell-based; settings: A549, 72 h
HCT-116 = assay: Cytotoxicity against human HCT-116 cells measured after 72 hrs; format: functional, cell-based; settings: HCT-116, 72 h
[6] = Cytotoxicity against mouse NIH3T3 cells measured after 72 hrs; format: toxicity, cell-based
[7] = Cytotoxicity against mouse L929 cells measured after 72 hrs; format: toxicity, cell-based
[8] = Antioxidant activity assessed as inhibition of peroxynitrite mediated L-tyrosine nitration in sodium phosphate buffer at pH 7.5 incubated for 7 mins by RP-HPLC analysis; format: functional
MHCC97H = assay: Antiproliferative activity against human MHCC97H cells assessed as reduction in cell viability incubated for 48 hrs by MTT assay; format: functional, cell-based
[9] = Inhibition of TrxR (unknown origin) expressed in MHCC97H cells incubated for 24 hrs by colorimetric assay; format: cell-based, Homo sapiens
Candida albicans [10] = assay: Antifungal activity against azole-resistant Candida albicans clinical isolate CaR assessed as fungal growth inhibition incubated for 24 hrs by CLSI protocol based broth microdilution method; format: functional
Candida albicans [11] = assay: Antifungal activity against azole-resistant Candida albicans clinical isolate 17 assessed as fungal growth inhibition incubated for 24 hrs by CLSI protocol based broth microdilution method; format: functional
Candida albicans [12] = assay: Antifungal activity against azole-resistant Candida albicans clinical isolate 632 assessed as fungal growth inhibition incubated for 24 hrs by CLSI protocol based broth microdilution method; format: functional
Candida albicans [13] = assay: Antifungal activity against azole-resistant Candida albicans clinical isolate 901 assessed as fungal growth inhibition incubated for 24 hrs by CLSI protocol based broth microdilution method; format: functional
Candida albicans [14] = assay: Antifungal activity against azole-resistant Candida albicans clinical isolate 904 assessed as fungal growth inhibition incubated for 24 hrs by CLSI protocol based broth microdilution method; format: functional
[15] = Cytotoxicity against human A549 cells assessed as reduction in cell viability incubated for 96 hrs by MTT assay; format: toxicity, cell-based
[16] = Cytotoxicity against human MDA-MB-231 cells assessed as reduction in cell viability incubated for 96 hrs by MTT assay; format: toxicity, cell-based
[17] = Cytotoxicity against human SGC cells assessed as reduction in cell viability incubated for 96 hrs by MTT assay; format: toxicity, cell-based
Candida albicans [18] = assay: Antifungal activity against Candida albicans CPCC 400616; format: functional
Candida albicans [19] = assay: Antifungal activity against Candida albicans SC5314; format: functional
Cryptococcus neoformans = assay: Antifungal activity against Cryptococcus neoformans CGMCC 2.3161; format: functional
Pichia kudriavzevii = assay: Antifungal activity against Candida krusei AS 2.1045; format: functional
Candida tropicalis = assay: Antifungal activity against Candida tropicalis CGMCC 2.3739; format: functional
Nakaseomyces glabratus = assay: Antifungal activity against Candida glabrata; format: functional
Candida parapsilosis = assay: Antifungal activity against Candida parapsilosis 22019; format: functional; settings: Lodderomyces parapsilosis
Aspergillus fumigatus = assay: Antifungal activity against Aspergillus fumigatus CGMCC 3.7795; format: functional
HeLa [20] = assay: Cytotoxicity against human HeLa cells assessed as inhibition of cell growth incubated for 96 hrs by MTT assay; format: functional, cell-based
HepG2 = assay: Cytotoxicity against human HepG2 cells assessed as inhibition of cell growth incubated for 96 hrs by MTT assay; format: functional, cell-based; settings: HepG2, 96 h
A549 [21] = assay: Cytotoxicity against human A549 cells assessed as inhibition of cell growth incubated for 96 hrs by MTT assay; format: functional, cell-based; settings: A549, 96 h
SMMC-7721 = assay: Cytotoxicity against human SMMC-7721 cells assessed as inhibition of cell growth incubated for 96 hrs by MTT assay; format: functional, cell-based; settings: SMMC-7721, 96 h
Lactoperoxidase = Lactoperoxidase (Homo sapiens, UniProt P22079); assay: Inhibition of LPO (unknown origin)-mediated L-tyrosine nitration incubated for 20 mins in presence of H2O2 and sodium nitrite by RP-HPLC analysis
Lactoperoxidase, sequence (P22079 whole entry): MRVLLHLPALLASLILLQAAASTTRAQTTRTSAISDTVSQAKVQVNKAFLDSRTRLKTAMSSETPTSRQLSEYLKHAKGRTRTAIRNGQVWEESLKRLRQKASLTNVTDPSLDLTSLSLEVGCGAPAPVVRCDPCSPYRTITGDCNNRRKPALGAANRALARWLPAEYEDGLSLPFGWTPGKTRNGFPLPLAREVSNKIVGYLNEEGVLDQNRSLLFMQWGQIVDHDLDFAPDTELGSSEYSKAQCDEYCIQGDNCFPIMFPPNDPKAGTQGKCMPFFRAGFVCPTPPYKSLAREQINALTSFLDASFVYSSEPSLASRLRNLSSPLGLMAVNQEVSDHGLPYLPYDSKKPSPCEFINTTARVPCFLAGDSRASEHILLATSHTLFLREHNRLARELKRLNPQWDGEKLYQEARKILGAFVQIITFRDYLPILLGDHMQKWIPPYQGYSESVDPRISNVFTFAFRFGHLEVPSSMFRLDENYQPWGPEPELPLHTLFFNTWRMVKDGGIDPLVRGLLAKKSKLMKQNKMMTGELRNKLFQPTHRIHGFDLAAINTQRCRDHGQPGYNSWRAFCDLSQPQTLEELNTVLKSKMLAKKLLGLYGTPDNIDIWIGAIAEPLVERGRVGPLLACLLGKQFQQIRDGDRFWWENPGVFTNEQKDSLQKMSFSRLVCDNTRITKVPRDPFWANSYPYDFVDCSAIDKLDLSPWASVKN

N#C[Se]CCOC(=O)CCCC[C@@H]1SC[C@@H]2NC(=O)N[C@@H]21
IC50 (OVCAR-3): 11.8 µM
IC50 [1]: 18.6 µM
IC50 (ES-2): 9.85 µM
IC50 [2]: 14.1 µM
IC50 (HEK-293T): 77.2 µM

NC1=Nc2c(ncn2C[Se]C(CO)CO)C(NC2CC2)N1 (configuration not stated)
EC50 (Human alphaherpesvirus 1): > 100 µM
EC50 (Human alphaherpesvirus 2): > 100 µM
EC50 (Human alphaherpesvirus 3): > 100 µM
EC50 (Human betaherpesvirus 5): 41.1 µM

C=C1N(C)C=CN1CCCCCn1ccn(C)c1=[Se]
Activity [3]: 45%

CC[C@@]1(OC(=O)OCc2ccc(O/C=C/[Se]c3ccccc3)cc2)C(=O)OCc2c1cc1n(c2=O)Cc2cc3ccccc3nc2-1
IC50 (HeLa [4]): 0.308 µM
IC50 (A549 [5]): 0.102 µM
IC50 (HCT-116): 0.043 µM
IC50 at 72 h [6]: 1.18 µM
IC50 at 72 h [7]: 10.2 µM

CN1C=CN(CCn2ccn(C)c2=[Se])C1
Activity [3]: 68.4%

Cn1ccnc1S [METHIMAZOLE]
IC50 [8]: 23.9 µM
Activity [3]: 32.5%

C[Se]C(=O)CCCC[C@@H]1SC[C@@H]2NC(=O)N[C@@H]21
IC50 (OVCAR-3): 22.3 µM
IC50 [1]: 24.9 µM
IC50 (ES-2): 9.84 µM
IC50 [2]: 20.2 µM
IC50 (HEK-293T): 31.5 µM

CN(C)CC[Se]c1cnc(-c2cccc(Cn3nc(-c4cccc(C#N)c4)ccc3=O)c2)nc1
IC50 (MHCC97H): 0.027 µM
IC50 [9]: 0.421 µM

c1ccc(-c2nn[se]c2-n2cncn2)cc1
MIC (Candida albicans [10]): 2 µg/mL (≈ 7.24 µM)
MIC (Candida albicans [11]): 16 µg/mL (≈ 57.9 µM)
MIC (Candida albicans [12]): 32 µg/mL (≈ 116 µM)
MIC (Candida albicans [13]): 32 µg/mL (≈ 116 µM)
MIC (Candida albicans [14]): 32 µg/mL (≈ 116 µM)
IC50 at 96 h [15]: 20.5 µg/mL (≈ 74.3 µM)
IC50 at 96 h [16]: 80.7 µg/mL (≈ 292 µM)
IC50 at 96 h [17]: 30.8 µg/mL (≈ 111 µM)

Cc1cccc(C)c1[Se]C(Cn1ccnc1)c1ccc(F)cc1 (configuration not stated)
MIC (Candida albicans [18]): 0.03 µg/mL (≈ 0.0804 µM)
MIC (Candida albicans [19]): 0.03 µg/mL (≈ 0.0804 µM)
MIC (Cryptococcus neoformans): 0.13 µg/mL (≈ 0.348 µM)
MIC (Pichia kudriavzevii): 0.06 µg/mL (≈ 0.161 µM)
MIC (Candida tropicalis): 0.06 µg/mL (≈ 0.161 µM)
MIC (Nakaseomyces glabratus): 0.25 µg/mL (≈ 0.67 µM)
MIC (Candida parapsilosis): 0.13 µg/mL (≈ 0.348 µM)
MIC (Aspergillus fumigatus): 2 µg/mL (≈ 5.36 µM)

N#Cc1cccc(-c2ccc(=O)n(Cc3cccc(-c4ncc([Se]CCCN5CCOCC5)cn4)c3)n2)c1
IC50 (MHCC97H): 0.029 µM
IC50 [9]: 0.117 µM

CN1CCC(COc2cnc(-c3cccc(Cn4nc(-c5cccc(C#N)c5)ccc4=O)c3)nc2)CC1 [TEPOTINIB]
IC50 (MHCC97H): 0.016 µM
IC50 [9]: > 10 µM

NC1=Nc2c(ncn2C[Se]C(CO)CO)C(N)N1 (configuration not stated)
EC50 (Human alphaherpesvirus 1): > 100 µM
EC50 (Human alphaherpesvirus 2): > 100 µM
EC50 (Human alphaherpesvirus 3): > 100 µM
EC50 (Human betaherpesvirus 5): 34.3 µM

O=C1N[C@H]2[C@H](CS[C@H]2CCCCC(=O)[Se]Cc2ccccc2)N1
IC50 (OVCAR-3): 36.9 µM
IC50 [1]: 47.2 µM
IC50 (ES-2): 16.2 µM
IC50 [2]: 17.3 µM
IC50 (HEK-293T): 6.57 µM

Nc1ccn([C@@H]2O[C@H](CO)[C@@H](O)C2(F)F)c(=O)n1 [GEMCITABINE]
IC50 (HeLa [20]): 3.9 µM
IC50 (HepG2): 2.46 µM
IC50 (A549 [21]): 0.69 µM
IC50 (SMMC-7721): 0.46 µM

O=C(Nc1ccn([C@@H]2O[C@H](CO)[C@@H](O)C2(F)F)c(=O)n1)OC1C[Se][Se]C1
IC50 (HeLa [20]): 0.88 µM
IC50 (HepG2): 0.47 µM
IC50 (A549 [21]): 0.11 µM
IC50 (SMMC-7721): 0.33 µM

COc1cccc(Cn2ccn(Cc3cccc(OC)c3)c2=S)c1
IC50 (Lactoperoxidase): 137 µM

O=C(O)CCCC[C@@H]1SC[C@@H]2NC(=O)N[C@@H]21 [BIOTIN]
IC50 (OVCAR-3): > 100 µM
IC50 [1]: > 100 µM
IC50 (ES-2): > 100 µM
IC50 [2]: > 100 µM
IC50 (HEK-293T): > 100 µM

OC(Cn1cncn1)(Cn1cncn1)c1ccc(F)cc1F [FLUCONAZOLE]
MIC (Candida albicans [10]): > 128 µg/mL
MIC (Candida albicans [11]): > 128 µg/mL
MIC (Candida albicans [12]): > 128 µg/mL
MIC (Candida albicans [13]): > 128 µg/mL
MIC (Candida albicans [14]): > 128 µg/mL
MIC (Candida tropicalis): 2 µg/mL (≈ 6.53 µM)

C=Cn1ccn(C)c1=[Se]
Activity [3]: 71%

COc1cccc(Cn2ccn(C)c2=[Se])c1
IC50 [8]: 7.8 µM

COc1cc2c(c(OC)c1OC)-c1ccc(OC)c(=O)cc1[C@@H](NC(C)=O)CC2 [COLCHICINE]
IC50 at 96 h [17]: 0.045 µg/mL (≈ 0.113 µM)
